Measured values: patent US20230355613A1, “METHODS FOR TREATING PANCREATIC DUCTAL ADENOCARCINOMA” (HEALTH RESEARCH, INC., priority 2022, published 2023)
Entries after “also recorded” stand apart in the source; their conditions may differ.

Legend:
C7 CAF = assay: 72-hour dose-response cell viability assay (CellTiter-Glo); assay type: cell-based; conditions: Fibroblast, C7 CAF human cancer associated fibroblasts
Excerpt: (§1) PDAC cells are sensitive to chemical inhibition of CPSF3. CPSF3 was recently identified as the target for the small molecule JTE-607. JTE-607 is a prodrug that, when metabolized by the ester hydrolyzing enzyme carboxylesterase 1 (CES1), binds to CPSF3 and inhibits its catalytic activity, impairing the processing of newly synthesized mRNAs. As genetic depletion of CPSF3 attenuated PDAC cell proliferation (FIG. 1), it 2as hypothesized that pharmacologic inhibition of CPSF3 with JTE-607 could represent a novel therapeutic approach in PDAC. The sensitivity of multiple human pancreatic cell lines, both non-transformed and PDAC, to JTE-607 in a 72-hour dose-response cell viability assay was examined. […] To examine if sensitivity to CPSF3 inhibition was associated with proliferation rate, the relationship between cell line doubling time and JTE-607 sensitivity was assessed. […] Next, the effect of JTE-607 on cell proliferation by treating cells with increasing concentrations of JTE-607 and assessing cell viability in a time-dependent fashion (FIGS. 2C-2E) was determined. […] Finally, the effect of JTE-607 on colony formation in PDAC cell lines was tested. […] Therefore, JTE-607 selectively attenuates proliferation of PDAC cells over non-transformed pancreatic cells.
(§2) JTE-607 studies. For dose-response measurements, cells were seeded at a density of 1000 cells per well in a 96-well white plate. The next day, JTE-607 was titrated over a range of concentrations using the Tecan D300e Digital Dispenser and cell viability was measured 72 hours post drug titration using a CellTiter-Glo Luminescent Cell Viability Assay Kit (Promega). For cell proliferation experiments, cells were seeded at a density of 250 cells per well in a 96-well white plate. DMSO control or JTE-607 was dispensed at varying concentrations and proliferation was measured using CellTiter-Glo Assay at days 0, 2, 4 and 6. For clonogenicity experiments, cells were seeded at a concentration of 500 cells per well and treated with different concentrations of JTE-607. Cells were allowed to grow over a period of 11-14 days after which they were fixed in 10% formalin, stained with 0.2% Crystal Violet and images were obtained for analysis. Colony area was measured using ImageJ software. Data were normalized to DMSO control data points.

HPDE cells = assay: as above; assay type: cell-based; conditions: Homo sapiens, HPDE non-transformed pancreatic epithelial cells
Excerpt: as §1, §2

HPNE cells [1] = assay: as above; assay type: cell-based; conditions: Homo sapiens, HPNE non-transformed pancreatic epithelial cells
Excerpt: as §1, §2

Panc1 cells [2] = assay: as above; assay type: cell-based; conditions: Homo sapiens, PANC-1, Panc1 PDAC cells
Excerpt: as §1, §2

PancPat CAFs = assay: as above; assay type: cell-based; conditions: Fibroblast, PancPat CAFs human cancer associated fibroblasts
Excerpt: as §1, §2

HPNE cells [3] = assay: Cell proliferation time course (CellTiter-Glo, days 0, 2, 4, 6); assay type: cell-based, human; conditions: increasing concentrations, days 0-6
Excerpt: as §1
as §2, with “Cells were allowed to grow over a period of 11-14 days after which they were fixed in 10% formalin, stained with 0.2% Crystal Violet and images were obtained for analysis.” left out, “Data were normalized to DMSO control data points.” left out

MiaPaCa2 cells = assay: as above; assay type: cell-based, human; conditions: increasing concentrations, days 0-6, dose-dependent
Excerpt: as §1
as §2, with “Cells were allowed to grow over a period of 11-14 days after which they were fixed in 10% formalin, stained with 0.2% Crystal Violet and images were obtained for analysis.” left out, “Data were normalized to DMSO control data points.” left out

Panc1 cells [4] = assay: as above; assay type: cell-based, human; conditions: increasing concentrations, days 0-6, dose-dependent
Excerpt: as §1
as §2, with “Cells were allowed to grow over a period of 11-14 days after which they were fixed in 10% formalin, stained with 0.2% Crystal Violet and images were obtained for analysis.” left out, “Data were normalized to DMSO control data points.” left out

PDAC cell lines = assay: Clonogenic growth (colony formation) assay; assay type: cell-based, human; conditions: all PDAC cell lines tested, 11-14 days
Excerpt: PDAC cells are sensitive to chemical inhibition of CPSF3. CPSF3 was recently identified as the target for the small molecule JTE-607. JTE-607 is a prodrug that, when metabolized by the ester hydrolyzing enzyme carboxylesterase 1 (CES1), binds to CPSF3 and inhibits its catalytic activity, impairing the processing of newly synthesized mRNAs. As genetic depletion of CPSF3 attenuated PDAC cell proliferation (FIG. 1), it 2as hypothesized that pharmacologic inhibition of CPSF3 with JTE-607 could represent a novel therapeutic approach in PDAC. The sensitivity of multiple human pancreatic cell lines, both non-transformed and PDAC, to JTE-607 in a 72-hour dose-response cell viability assay was examined. […] To examine if sensitivity to CPSF3 inhibition was associated with proliferation rate, the relationship between cell line doubling time and JTE-607 sensitivity was assessed. […] Next, the effect of JTE-607 on cell proliferation by treating cells with increasing concentrations of JTE-607 and assessing cell viability in a time-dependent fashion (FIGS. 2C-2E) was determined. […]
JTE-607 studies. […] The next day, JTE-607 was titrated over a range of concentrations using the Tecan D300e Digital Dispenser and cell viability was measured 72 hours post drug titration using a CellTiter-Glo Luminescent Cell Viability Assay Kit (Promega). […] Colony area was measured using ImageJ software. […]

HPNE cells [5] = assay: Histone transcriptional read-through by RT-qPCR; assay type: cell-based, human
Excerpt: (§3) JTE-607 induces RD-histone read-through preferentially in PDAC cells. […] It was sought to validate this transcriptional read-through phenomena experimentally by RT-qPCR. Two RD- and two RI-histones that show differences beyond their 3′ end boundaries were picked for experimental validation (FIGS. 13A and 13B). PCR primers were designed to amplify different regions within and beyond the boundaries of the 3′-UTR (FIG. 13C). […] However, the effect of JTE-607 on transcriptional read-through in HPNE cells was minimal (FIG. 5A). […] Because stable long-term knockdown can force cells to adapt, it was asked whether short-term knockdown of CPSF3 can recapitulate JTE-607 effect on transcriptional read-through. […] Improperly processed histone mRNAs fail to be exported into the cytoplasm for translation, leading to decreased protein levels. […] Next, it was determined whether histone dysregulation might be transcriptionally mediated by dysregulation of transcription factors at the levels of APA or gene expression. MotifMap, an integrative genome-wide map of regulatory motif sites, was used to find putative transcription factors regulating expression of RD histones. 51 transcription factors that have strong binding sites (1000 bp upstream of transcription start site; FDR<0.05) within RD histone promoters (Table S3 (attached as a Large Table)) were found. However, these histone transcription factors are neither APA altered nor differentially expressed upon JTE-607 treatment (FIGS. 13G and 13H). Taken together, these findings indicate that JTE-607 decreases RD histone expression by promoting transcriptional read-through.
(§4) RNA isolation and quantitative PCR. Cells were lysed with TRIzol reagent. RNA was isolated using Direct-zol RNA Miniprep. cDNA was synthesized using iScript cDNA Synthesis Kit. qPCR was conducted with SYBR Green PCR primers mixed with iTaq Universal SYBR Green Supermix and run on CFX connect systems (Bio-Rad). Data were analyzed in Microsoft Excel and graphed using GraphPad Prism (v 9.3.0).

Panc1 cells [6] = assay: Histone transcriptional read-through by RT-qPCR; assay type: cell-based, human
Excerpt: as §3, §4

[7] = healthy human volunteers; cited from earlier work
[8] = early or late time points (2 h, 24 h)

Which IC50 (C7 CAF) does the source give for `CCOC(=O)[C@H](Cc1ccccc1)NC(=O)c1cc(Cl)c(OCCN2CCN(C)CC2)c(Cl)c1O` [JTE-607] here?
The IC50 was 70 µM.

What about the IC50 (HPDE cells) of the same molecule?
Its IC50 is 60.1 µM.

What about the IC50 (HPNE cells [1]) of the same molecule?
The IC50 was 130 µM.

What about the IC50 (Panc1 cells [2]) of the same molecule?
The IC50 was 2.16 µM.

And the IC50 (PancPat CAFs)?
The IC50 was 114 µM.

What about the effect on proliferation (HPNE cells [3]) of the same molecule?
The effect on proliferation was “no effect on proliferation”.

What about the effect on proliferation (MiaPaCa2 cells) of the same molecule?
Its effect on proliferation is “significantly attenuated”.

What about the effect on proliferation (Panc1 cells [4]) of the same molecule?
Its effect on proliferation is “significantly attenuated”.

What about the colony formation (PDAC cell lines) of the same molecule?
Its colony formation is “significantly decreased colony formation”.

And the “transcriptional read-through of RD histones” value (HPNE cells [5]; 24 h treatment)?
The value was “minimal”.

What about the “transcriptional read-through of RI histones” value (HPNE cells [5]; [8]) of the same molecule?
The value was “did not induce transcriptional read-through”.

What about the “transcriptional read-through of RD histones” value (Panc1 cells [6]; 24 h treatment, normalized to DMSO) of the same molecule?
Its value is “up to −20 fold change”.

What about the “transcriptional read-through of RI histones” value (Panc1 cells [6]; [8]) of the same molecule?
Its value is “did not induce transcriptional read-through”.

And the adverse events [7]?
The adverse events was “no serious adverse effects; also recorded: no severe adverse events reported”.
